Holding throughout (experiment): SHP2 phosphatase activity upon p-IRS-1 peptide stimulation (DiFMUP)
Type in all cases: biochemical
Holding throughout (settings): 200 μM DiFMUP, read-out: pIRS-1 AC50

One experiment deals with T1, SHP2^WT (Homo sapiens, UniProt Q06124).
T1 construct: made in house
T1 sequence (Q06124 1-593): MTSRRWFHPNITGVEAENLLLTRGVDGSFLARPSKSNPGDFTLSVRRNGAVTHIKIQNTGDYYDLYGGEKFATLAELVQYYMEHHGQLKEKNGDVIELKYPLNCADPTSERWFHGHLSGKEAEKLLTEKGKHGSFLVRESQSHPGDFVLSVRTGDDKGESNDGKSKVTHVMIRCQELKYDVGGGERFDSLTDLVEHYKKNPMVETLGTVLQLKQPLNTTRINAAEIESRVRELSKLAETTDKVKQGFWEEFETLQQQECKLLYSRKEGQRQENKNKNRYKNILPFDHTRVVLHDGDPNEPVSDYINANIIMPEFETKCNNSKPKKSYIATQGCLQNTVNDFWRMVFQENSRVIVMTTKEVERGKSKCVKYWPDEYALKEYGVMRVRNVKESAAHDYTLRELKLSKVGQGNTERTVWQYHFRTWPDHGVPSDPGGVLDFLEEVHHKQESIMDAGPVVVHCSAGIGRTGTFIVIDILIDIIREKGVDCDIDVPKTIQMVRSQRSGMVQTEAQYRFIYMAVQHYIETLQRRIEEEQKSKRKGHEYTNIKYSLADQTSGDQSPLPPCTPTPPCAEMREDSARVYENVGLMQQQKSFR
On the procedure:
(§1) Wild-type and mutant SHP2 proteins were diluted to 0.1 nM and treated with either varying concentrations of diphosphorylated IRS-1 peptide (pY1172-Peg-PY1222, SLNY(p)IDLDLVK-dPEG8-LSTY(p)ASINFQK), or for maximal activation, 10 μM pY1172-Peg-PY1222. Phosphatase activity was measured through the dephosphorylation DiFMUP (200 μM, ex. 385, em. 450 nm) on a Spectramax M5 plate reader and converted to product (DiFMU)/time by preparing a standard curve of DiFMU/DiFMUP. Velocity data were fit to the following three-parameter dose–response curve (Eq. (2)) to extrapolate EC50 values:2 V=Basal+Max-Basal∕1+10^LogEC50-S Where V represents enzyme velocity, Basal is basal response, Max is maximal response, [S] is substrate concentration, and EC50 is the substrate concentration that yields response half way between basal and maximal.

In a further experiment the target is T2, SHP2^G60V (Homo sapiens, UniProt Q06124, G60V).
T2 construct: made in house
T2 sequence (Q06124 1-593 G60V): T1 sequence (Q06124 1-593) with G60V
On the procedure: as §1

The next experiment concerns the target T3, SHP2^S502P (Homo sapiens, UniProt Q06124, S502P).
T3 construct: made in house
T3 sequence (Q06124 1-593 S502P): T1 sequence (Q06124 1-593) with S502P
The protocol: as §1

The next experiment deals with T4, SHP2^D61V (Homo sapiens, UniProt Q06124, D61V).
T4 construct: made in house
T4 sequence (Q06124 1-593 D61V): T1 sequence (Q06124 1-593) with D61V
On the procedure: as §1

Another experiment concerns the target T5, SHP2^F285S (Homo sapiens, UniProt Q06124, F285S).
T5 construct: made in house
T5 sequence (Q06124 1-593 F285S): T1 sequence (Q06124 1-593) with F285S
On the procedure:
as §1

Each structure is given as a SMILES string. Substitutions are numbered along the chain they refer to. Where a SMILES comes first, the peptide text is derived from it. [ ]: non-standard residue; d: D form. pY = N[C@@H](Cc1ccc(OP(=O)(O)O)cc1)C(=O)O; PEG8 = NCCOCCOCCOCCOCCOCCOCCOCCOCCC(=O)O

`CC[C@H](C)[C@H](NC(=O)[C@H](CO)NC(=O)[C@H](C)NC(=O)[C@H](Cc1ccc(OP(=O)(O)O)cc1)NC(=O)[C@@H](NC(=O)[C@H](CO)NC(=O)[C@H](CC(C)C)NC(=O)CCOCCOCCOCCOCCOCCOCCOCCOCCNC(=O)[C@H](CCCCN)NC(=O)[C@@H](NC(=O)[C@H](CC(C)C)NC(=O)[C@H](CC(=O)O)NC(=O)[C@H](CC(C)C)NC(=O)[C@H](CC(=O)O)NC(=O)[C@@H](NC(=O)[C@H](Cc1ccc(OP(=O)(O)O)cc1)NC(=O)[C@H](CC(N)=O)NC(=O)[C@H](CC(C)C)NC(=O)[C@@H](N)CO)[C@@H](C)CC)C(C)C)[C@@H](C)O)C(=O)N[C@@H](CC(N)=O)C(=O)N[C@@H](Cc1ccccc1)C(=O)N[C@@H](CCC(N)=O)C(=O)N[C@@H](CCCCN)C(=O)O` [pIRS-1, SLNY(p)IDLDLVK-dPEG8-LSTY(p)ASINFQK] (H-SLN[pY]IDLDLVK[PEG8]LST[pY]ASINFQK-OH): the AC50 (as a rule, the concentration giving half of the maximal activity seen) on SHP2^WT is 247 ± 18 nM; on SHP2^G60V, 9 ± 2 nM; on SHP2^S502P it was 5 ± 2 nM; on SHP2^D61V, 4 ± 1 nM; on SHP2^F285S it was 18 ± 2 nM.

Source of the values: publication PMC6207684, “Structural reorganization of SHP2 by oncogenic mutations and implications for oncoprotein resistance to allosteric inhibition” (Nature Communications, 2018).
